Measurements as given in ChEMBL document CHEMBL3739353, “Arthroamide, a Cyclic Depsipeptide with Quorum Sensing Inhibitory Activity from Arthrobacter sp” (J Nat Prod, 2015).
The source made the active and inactive calls. The calls are words filed in the database; no cut-off is given here.

Tests used:
[1] = molecular target: T1, Accessory gene regulator protein A (Staphylococcus aureus) (UniProt P0A0I7); experiment: Inhibition of agr-mediated quorum sensing in Staphylococcus aureus at 5 to 10 uM after 5 hrs by luminescence analysis
T1 sequence (whole entry): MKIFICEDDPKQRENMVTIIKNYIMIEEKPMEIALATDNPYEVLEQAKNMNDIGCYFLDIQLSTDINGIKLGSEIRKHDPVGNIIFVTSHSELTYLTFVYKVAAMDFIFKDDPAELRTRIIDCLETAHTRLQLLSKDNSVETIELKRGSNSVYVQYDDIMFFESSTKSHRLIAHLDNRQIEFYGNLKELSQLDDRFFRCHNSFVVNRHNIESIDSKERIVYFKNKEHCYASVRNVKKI

[2] = test system: Escherichia coli; experiment: Antimicrobial activity against Escherichia coli at 100 ug/ml; type: functional, organism-based
[3] = test system: Micrococcus luteus; experiment: Antimicrobial activity against Micrococcus luteus at 100 ug/ml; type: functional, organism-based
[4] = test system: Candida albicans; experiment: Antimicrobial activity against Candida albicans at 100 ug/ml; type: functional, organism-based

CC[C@H](C)[C@@H]1NC(=O)[C@@H](C)NC(=O)[C@H](C(C)C)NC(=O)C[C@H](/C=C/c2ccccc2)OC(=O)[C@H](C(C)C)NC1=O showed an inhibition [1] of 10%.

For CC(C)[C@@H]1NC(=O)C[C@H](/C=C/c2ccccc2)OC(=O)[C@H](C(C)C)NC(=O)[C@H](C(C)C)NC(=O)[C@@H](C)NC1=O, the Activity [2] was “inactive”, the Activity [3] was “inactive” and the Activity [4] was “inactive”. The inhibition [1] was 10%.
